Source: ChEMBL document CHEMBL1136133, “Discovery of the first series of inhibitors of human papillomavirus type 11: inhibition of the assembly of the E1-E2-Origin DNA complex” (Bioorg Med Chem Lett, 2003)

tested on: human papillomavirus 11; experiment: Inhibition of the assembly of the (HPV11) Human Papillomavirus Type 11 E1E2 Origin DNA Complex; assay type: functional, organism-based

Compared with `O=C(Nc1ccc2c(c1)OCO2)[C@H]1C(c2ccc(Cl)cc2)OC2(C(=O)c3ccccc3C2=O)[C@H]1C(=O)O` (stereo partly drawn), `O=C(Nc1ccc2c(c1)OCO2)[C@H]1[C@@H](c2ccc(Cl)cc2)OC2(C(=O)c3ccccc3C2=O)[C@H]1C(=O)O` is lower in IC50: over 80 µM for the first, 7.8 µM for the second.

Compared with `O=C(Nc1ccc2c(c1)OCO2)[C@H]1[C@@H](c2ccc(Cl)c(Cl)c2)OC2(C(=O)c3ccccc3C2=O)[C@H]1C(=O)O`, `O=C(Nc1ccc2c(c1)OCO2)[C@H]1[C@@H](c2cccc(Cl)c2)OC2(C(=O)c3ccccc3C2=O)[C@H]1C(=O)O` is 7.4-fold higher in IC50: 0.35 µM for the first, 2.6 µM for the second.

Compared with `O=C(Nc1ccc2c(c1)OCO2)[C@H]1[C@@H](c2ccccc2Cl)OC2(C(=O)c3ccccc3C2=O)[C@H]1C(=O)O`, `O=C(Nc1ccc2c(c1)OCO2)[C@H]1[C@@H](c2ccccc2)OC2(C(=O)c3ccccc3C2=O)[C@H]1C(=O)O` is lower in IC50: over 80 µM for the first, 71 µM for the second. The second is the more potent here.

Compared with `O=C1[C@H]2[C@H](c3ccc(Cl)cc3)OC3(C(=O)c4ccccc4C3=O)[C@H]2C(=O)N1c1ccc2c(c1)OCO2`, `O=C1C2C(c3ccc(Cl)cc3)OC3(C(=O)c4ccccc4C3=O)C2C(=O)N1c1ccc2c(c1)OCO2` (stereo not drawn) is lower in IC50: over 80 µM for the first, 11 µM for the second. The second is the more potent here.
